Our source for the IC50 and inhibition values is ChEMBL document CHEMBL1138905, “Design, synthesis, and biological evaluation of indole derivatives as novel nociceptin/orphanin FQ (N/OFQ) receptor antagonists” (Bioorg Med Chem Lett, 2006).

For test [1], the target named is T1, Nociceptin receptor (Homo sapiens, UniProt P41146). In words: Displacement of [125I][Tyr14]N/OFQ from ORL1 receptor transfected in CHO cells. In kind it is cell-based.
The target of test [2] is T1, Nociceptin receptor. In words: Displacement of [125I][Tyr14]N/OFQ from ORL1 receptor transfected in CHO cells at 1 uM. In kind it is cell-based.
Test [3] deals with T1, Nociceptin receptor. In words: Antagonist activity against ORL1 receptor by GTPgammaS assay. In kind it is functional.

T1 sequence (P41146 whole entry): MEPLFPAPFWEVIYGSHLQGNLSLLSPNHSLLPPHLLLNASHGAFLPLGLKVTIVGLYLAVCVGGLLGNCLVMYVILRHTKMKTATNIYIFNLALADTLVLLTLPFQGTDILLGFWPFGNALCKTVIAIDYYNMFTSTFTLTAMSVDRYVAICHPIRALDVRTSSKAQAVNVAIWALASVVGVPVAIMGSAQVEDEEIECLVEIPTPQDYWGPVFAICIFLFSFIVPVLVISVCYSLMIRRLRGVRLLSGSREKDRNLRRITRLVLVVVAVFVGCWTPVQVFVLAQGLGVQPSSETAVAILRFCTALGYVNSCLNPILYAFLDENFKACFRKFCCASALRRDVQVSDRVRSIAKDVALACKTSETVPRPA

The IC50 is the midpoint of a concentration-inhibition curve. A high value points to a need for much substance. In test [1], `CN(C)CCc1cccc2[nH]c(-c3nc(CCC4CC5CCC4C5)no3)cc12` (centres undefined) showed an IC50 of 440 nM. In general, inhibition refers to the drop in the measured response relative to a control, in per cent. The low end stands for a weak effect, the high end for a strong effect. Turning to `CN(C)CCc1cccc2[nH]c(-c3ncc(CCc4ccc(Cl)cc4)o3)cc12`, in test [1], the IC50 is greater than 1000 nM. Moreover, the inhibition in test [2] amounted to 37%. Compound `Clc1ccc(CCc2noc(-c3cc4c(CCN5CCOCC5)cccc4[nH]3)n2)cc1` had an IC50 in test [1] greater than 1000 nM. The compound further had an inhibition in test [2] of 15%. On the same counts, the results for `CN(C)CCc1cccc2[nH]c(-c3nc(CCc4ccccc4)no3)cc12` are greater than 1000 nM and 46%. The matching figures for `CN(C)CCc1cccc2[nH]c(-c3nc(CCc4cccnc4)no3)cc12`: greater than 1000 nM and 1.7%.

In the case of `CN(C)CCc1cccc2[nH]c(-c3nc(CCc4ccncc4)no3)cc12`, the IC50 in test [1] was greater than 1000 nM. For the same compound, the inhibition in test [2] came out at 12%.

For the compound `Cc1ccc(CCc2noc(-c3cc4c(CCN(C)C)cccc4[nH]3)n2)cc1`, in test [1], the 50% inhibitory concentration (IC50) was 230 nM. On to `CN(C)CCCc1cccc2[nH]c(-c3nc(CCc4ccc(Cl)cc4)no3)cc12`, for which the half-inhibitory concentration (IC50) in test [1] was 210 nM.

Take `CN(C)CCc1cccc2[nH]c(-c3nc(Cc4ccc(Cl)cc4)no3)cc12`: the concentration for half-maximal inhibition (IC50) in test [1] turned out to be 450 nM. Take `CN(C)CCc1cccc2[nH]c(-c3nc(CCC4CCCC4)no3)cc12`: in test [1], the half-inhibitory concentration (IC50) amounted to 580 nM.

Turning to `CN(C)CCc1cccc2[nH]c(-c3nc(CCc4ccc(C(F)(F)F)cc4)no3)cc12`, the results for the half-maximal inhibitory concentration (IC50) in test [3] and in test [1] were 421 nM and 49 nM, respectively.

Consider `CN(C)CCOCCc1cccc2[nH]c(-c3nc(CCc4ccc(Cl)cc4)no3)cc12`, for which the results for the IC50 in test [3] and in test [1] were 450 nM and 97 nM, respectively. The compound `CN(C)CCc1cccc2[nH]c(-c3noc(CCc4ccc(Cl)cc4)n3)cc12` registered an IC50 in test [1] of 600 nM. The compound `CN(C)CCc1cccc2[nH]c(-c3nc(CCC4CCOCC4)no3)cc12` showed a half-maximal inhibitory concentration (IC50) in test [1] greater than 1000 nM. In test [2], this compound returned an inhibition of 11%.

Take `CN(C)CCc1cccc2[nH]c(-c3nc(CCc4ccc(N(C)C)cc4)no3)cc12`: the IC50 in test [1] is greater than 1000 nM. In test [2], the inhibition is 44%. Consider `CN1CCN(c2cccc3[nH]c(-c4nc(CCc5ccc(Cl)cc5)no4)cc23)CC1`, for which the IC50 in test [1] came out at 120 nM. `CC(C)CCc1noc(-c2cc3c(CCN(C)C)cccc3[nH]2)n1` gave an IC50 in test [1] greater than 1000 nM. Also, the inhibition in test [2] worked out at 29%. Regarding `CN1CCCC1c1ccc2[nH]c(-c3nc(CCc4ccc(Cl)cc4)no3)cc2c1C1CCCN1C` (centres undefined), the half-inhibitory concentration (IC50) in test [1] was greater than 1000 nM. The inhibition in test [2] is 31%. As to `CN(C)CCc1cccc2[nH]c(C(=O)NCCc3ccc(Cl)cc3)cc12`, the 50% inhibitory concentration (IC50) in test [1] is greater than 1000 nM. In addition, the inhibition in test [2] was 18%.

In test [1], `CN(C)CCc1cccc2cc(-c3nc(CCc4ccc(Cl)cc4)no3)[nH]c12` displayed an IC50 greater than 1000 nM. The compound further had an inhibition in test [2] of 18%. `CN1CCN(c2[nH]ccc3nc(-c4nc(CCc5ccc(Cl)cc5)no4)cc2-3)CC1`: the IC50 in test [3] worked out at 199 nM; in test [1], 40 nM. On to `CN(C)CCc1ccc2[nH]c(-c3nc(CCc4ccc(Cl)cc4)no3)cc2c1`, for which, in test [1], the half-maximal inhibitory concentration (IC50) is greater than 1000 nM. For the same compound, the inhibition in test [2] came out at 3%.

On to `Clc1ccc(CCc2noc(-c3cc4c(CCN5CCCC5)cccc4[nH]3)n2)cc1`, for which the IC50 in test [1] worked out at 568 nM. In turn, `COC(C)(C)CCc1noc(-c2cc3c(CCN(C)C)cccc3[nH]2)n1` registered an IC50 in test [1] greater than 1000 nM. In test [2], the inhibition worked out at 4%. Compound `CN(C)CCc1cccc2[nH]c(-c3nc(CCc4ccc(F)cc4)no3)cc12` displayed an IC50 in test [1] of 450 nM. In test [1], `CN1CCN(c2cc[nH]c3nc(-c4nc(CCc5ccc(Cl)cc5)no4)cc2-3)CC1` displayed an IC50 greater than 1000 nM. Moreover, the inhibition in test [2] was determined as 27%. In the case of `CN1CCC(c2cccc3[nH]c(-c4nc(CCc5ccc(Cl)cc5)no4)cc23)CC1`, the IC50 in test [3] is 899 nM; in test [1], 62 nM. In the case of `CN(C)CCc1cccc2[nH]c(-c3nc(CCCN4CCCC4)no3)cc12`, the IC50 in test [1] was greater than 1000 nM. In test [2], the inhibition was determined as 0%. On to `CN(C)Cc1cccc2[nH]c(-c3nc(CCc4ccc(Cl)cc4)no3)cc12`, for which the IC50 in test [3] came out at 233 nM; in test [1] it was 62 nM.

`CN(C)CCc1cccc2[nH]c(-c3nc(CCc4ccccn4)no3)cc12` returned an IC50 in test [1] greater than 1000 nM. Moreover, the inhibition in test [2] was determined as 11%. `CN(C)CCc1cccc2[nH]c(C(=O)NCCCc3ccc(Cl)cc3)cc12` had an IC50 in test [1] greater than 1000 nM. The inhibition in test [2] was 41%. Compound `CN(C)CCc1cccc2[nH]c(-c3nc(CC4CCCCC4)no3)cc12` came in with an IC50 in test [1] of 440 nM. `CN(C)CCc1cccc2[nH]c(-c3nc(CCC4CC4)no3)cc12` came in with an IC50 in test [1] greater than 1000 nM. In test [2], this compound yielded an inhibition of 29%. With `CN(C)CCc1cccc2[nH]c(-c3nc(CCC(C)(C)C)no3)cc12`, in test [1], the half-maximal inhibitory concentration (IC50) is greater than 1000 nM. Besides, the inhibition in test [2] worked out at 20%. Turning to `CN(C)CCc1cccc2[nH]c(-c3nc(CCc4ccc(Cl)cc4)no3)cc12`, the IC50 stood at 632 nM in test [3] and 95 nM in test [1]. As for `CN(C)CCc1cccc2[nH]c(-c3nc(COc4ccc(Cl)cc4)no3)cc12`, the half-inhibitory concentration (IC50) in test [1] worked out at 410 nM. Compound `CN(C)CCc1cccc2[nH]c(-c3nc(CCCc4ccc(Cl)cc4)no3)cc12` returned an IC50 in test [1] greater than 1000 nM. Moreover, the inhibition in test [2] is 49%. On to `CN(C)CCc1cccc2[nH]c(-c3nc(CCCC4CCCCC4)no3)cc12`, for which the figures for the IC50 in test [3] and in test [1] were 294 nM and 71 nM, respectively. Turning to `CCCCc1noc(-c2cc3c(CCN(C)C)cccc3[nH]2)n1`, the 50% inhibitory concentration (IC50) in test [1] is greater than 1000 nM. The compound also came in with an inhibition in test [2] of 42%.

On to `CCN(C)CCc1cccc2[nH]c(-c3nc(CCc4ccc(Cl)cc4)no3)cc12`, for which the IC50 in test [3] turned out to be 223 nM; in test [1], 58 nM. In turn, `CN(C)CCc1cccc2[nH]c(-c3nnn(CCc4ccc(Cl)cc4)n3)cc12` registered a half-maximal inhibitory concentration (IC50) in test [1] greater than 1000 nM. This compound returned an inhibition in test [2] of 46%. Consider `COc1ccc(CCc2noc(-c3cc4c(CCN(C)C)cccc4[nH]3)n2)cc1`, for which the IC50 in test [1] came to 560 nM.

In test [1], `CN(C)CCc1cccc2[nH]c(-c3nc(CCC4CCCCC4)no3)cc12` displayed a half-maximal inhibitory concentration (IC50) of 140 nM. `CCCc1noc(-c2cc3c(CCN(C)C)cccc3[nH]2)n1` came in with an IC50 in test [1] greater than 1000 nM. Also, the inhibition in test [2] was 14%. On the same counts, the results for `CN(C)CCc1ccc2cc(-c3nc(CCc4ccc(Cl)cc4)no3)[nH]c2c1` are greater than 1000 nM and 22%.

For `CN(C)CCc1cccc2[nH]c(-c3nnc(CCc4ccc(Cl)cc4)o3)cc12`, the IC50 in test [1] is greater than 1000 nM. In test [2], this compound returned an inhibition of 39%.
